Data set [1] can be described thus: Fraction unbound in human plasma. It counts as ADME, cell-free.
The target of data set [2] is T1, P2X purinoceptor 7 (Homo sapiens, UniProt Q99572).
T1 sequence (Q99572 whole entry): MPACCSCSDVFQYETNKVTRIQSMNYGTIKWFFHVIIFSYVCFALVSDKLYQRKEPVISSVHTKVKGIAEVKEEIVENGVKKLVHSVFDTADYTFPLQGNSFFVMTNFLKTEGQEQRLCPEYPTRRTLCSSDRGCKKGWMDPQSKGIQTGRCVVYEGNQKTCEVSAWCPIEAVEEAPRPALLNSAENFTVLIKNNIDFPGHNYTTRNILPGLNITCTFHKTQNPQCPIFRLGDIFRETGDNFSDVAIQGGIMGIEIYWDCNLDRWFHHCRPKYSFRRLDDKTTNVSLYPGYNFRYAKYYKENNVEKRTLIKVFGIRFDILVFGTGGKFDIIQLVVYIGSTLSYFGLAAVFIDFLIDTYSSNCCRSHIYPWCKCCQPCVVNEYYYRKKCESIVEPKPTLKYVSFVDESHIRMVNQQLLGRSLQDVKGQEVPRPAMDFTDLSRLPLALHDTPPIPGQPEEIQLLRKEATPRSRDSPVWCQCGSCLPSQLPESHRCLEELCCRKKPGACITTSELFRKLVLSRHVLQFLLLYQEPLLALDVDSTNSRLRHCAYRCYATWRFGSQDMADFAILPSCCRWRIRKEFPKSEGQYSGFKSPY
The data set is described as follows: Antagonist activity at human recombinant P2X7 receptor expressed in 1321N1 cells assessed as inhibition of BzATP-induced calcium mobilization incubated for 30 mins measured after 180 seconds by calcium-4 dye based FLIPR assay. The format is cell-based.

The target of data set [3] is T2, P2X purinoceptor 7 (Rattus norvegicus, UniProt Q64663).
T2 sequence (Q64663 whole entry): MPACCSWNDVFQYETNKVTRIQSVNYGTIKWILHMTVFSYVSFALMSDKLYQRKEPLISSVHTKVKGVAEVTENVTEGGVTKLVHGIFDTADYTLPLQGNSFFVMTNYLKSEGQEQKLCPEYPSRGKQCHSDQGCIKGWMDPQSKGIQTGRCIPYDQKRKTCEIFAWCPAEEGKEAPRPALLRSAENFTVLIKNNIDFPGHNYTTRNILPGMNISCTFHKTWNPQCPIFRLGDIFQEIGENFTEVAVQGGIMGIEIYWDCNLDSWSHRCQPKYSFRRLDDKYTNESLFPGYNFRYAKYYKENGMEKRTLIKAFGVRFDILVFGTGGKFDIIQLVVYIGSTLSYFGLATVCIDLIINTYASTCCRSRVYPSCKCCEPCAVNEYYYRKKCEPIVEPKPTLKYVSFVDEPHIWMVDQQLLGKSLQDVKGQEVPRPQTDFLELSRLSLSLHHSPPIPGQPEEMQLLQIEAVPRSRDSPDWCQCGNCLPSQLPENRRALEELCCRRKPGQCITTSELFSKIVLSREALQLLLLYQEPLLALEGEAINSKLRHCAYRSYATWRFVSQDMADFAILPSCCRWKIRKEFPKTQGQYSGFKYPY
The data set can be described thus: Antagonist activity at rat P2X7 receptor expressed in 1321N1 cells assessed as inhibition of BzATP-induced calcium mobilization incubated for 30 mins measured after 180 seconds by calcium-4 dye based FLIPR assay. The format is cell-based.

Data set [4] can be described thus: Fraction unbound in rat plasma. It counts as ADME, cell-free.
Another data set deals with Cytochrome P450 3A4 (Homo sapiens, UniProt P08684). The data set is described as follows: Inhibition of CYP3A4 (unknown origin). It counts as ADME.
A short description of data set [5]: Cmax in dog at 2.5 mg/kg, po. Particulars: in vivo. Set-up: dose 2.5 mg/kg, route oral. The format is ADME, organism-based, Canis lupus familiaris.
The subject of data set [6] is Rattus norvegicus. The data set is described as follows: Ex vivo inhibition of P2X7 in po dosed rat measured after 1 to 2 hrs by ARG assay. It counts as functional, organism-based.
The nature of data set [7]: Oral bioavailability in dog at 2.5 mg/kg. It counts as ADME, organism-based, Canis lupus familiaris. The note with it: in vivo.
Data set [8] has as its target T1, P2X purinoceptor 7. The data set can be described thus: Antagonist activity at human P2X7 receptor expressed in HEK293 cells assessed as inhibition of BzATP-induced calcium mobilization monitored for 5 mins followed by stimulation with BzATP measured after 3 mins by Fluo-8 NW dye based tetra FLIPR assay. The format is cell-based. (A change in cytosolic calcium serves as a functional read-out for many receptors and channels.)

Data set [9] is described as follows: Oral bioavailability in rat at 10 mg/kg. It counts as ADME, organism-based. Particulars: in vivo.
Data set [10] in a line: Efflux ratio of apparent permeability from basolateral to apical over apical to basolateral side in human Caco2 cells at 10 uM after 40 to 60 mins by LC-MS/MS analysis. The note with it: Caco-2. It counts as ADME, cell-based. (In general: Caco-2 monolayers are a common model of the intestinal barrier.)
In data set [11] the test system is Rattus norvegicus. The data set can be described thus: Ex vivo receptor occupancy at P2X7 receptor in rat at 10 mg/kg, po. It counts as functional.
A short description of data set [12]: Ratio of drug level in brain to plasma in rat at 10 mg/kg, po. The format is ADME, organism-based. The note with it: read-out: BPR.
In data set [13] the target is T1, P2X purinoceptor 7. The data set can be described thus: Antagonist activity at human recombinant P2X7 receptor expressed in HEK293 cells assessed as inhibition of ATP-induced calcium mobilization incubated for 90 mins in presence of ATP by YO-PRO-1 dye based tetra FLIPR assay. The format is cell-based.
In data set [14] the target is T1, P2X purinoceptor 7. The data set can be described thus: Antagonist activity at human P2X7 receptor expressed in HEK293 cells assessed as inhibition of BzATP-induced calcium mobilization incubated for 30 mins by Fluo-4 NW dye based tetra FLIPR assay. It counts as cell-based.
Data set [15] has as its target T1, P2X purinoceptor 7. The data set can be described thus: Antagonist activity at human P2X7 receptor expressed in THP1 cells assessed as inhibition of BzATP-induced IL-1beta release preincubated for 20 mins followed by stimulation with BzATP for 30 mins by sandwich ELISA. The format is cell-based. (In general: An ELISA detects its analyte on a solid surface through an enzyme-linked reagent.)

Data set [16] addresses T1, P2X purinoceptor 7. The data set is described as follows: Antagonist activity at human P2X7 receptor expressed in HEK293 cells assessed as inhibition of BzATP-induced pore formation incubated for 20 mins followed by stimulation with BzATP for 30 mins by YO-PRO dye based fluorescence plate reader method. It counts as cell-based.

The structures appear in SMILES notation.

The term fraction unbound denotes free concentration divided by total concentration. Read a high fraction unbound as weak binding. As usually defined, the IC50 is the concentration at which inhibition is half-maximal. In general, Cmax refers to the peak of the concentration-time curve. Broadly, the EC50 is the concentration that produces a half-maximal response. A higher EC50 goes with a need for much substance. What is called bioavailability is dose-corrected exposure relative to a reference, in per cent. A low value points to little systemic uptake. Broadly, the efflux ratio is the permeability from basolateral to apical divided by that in the opposite direction, in the common usage.

Chain of Cytochrome P450 3A4 (P08684 whole entry): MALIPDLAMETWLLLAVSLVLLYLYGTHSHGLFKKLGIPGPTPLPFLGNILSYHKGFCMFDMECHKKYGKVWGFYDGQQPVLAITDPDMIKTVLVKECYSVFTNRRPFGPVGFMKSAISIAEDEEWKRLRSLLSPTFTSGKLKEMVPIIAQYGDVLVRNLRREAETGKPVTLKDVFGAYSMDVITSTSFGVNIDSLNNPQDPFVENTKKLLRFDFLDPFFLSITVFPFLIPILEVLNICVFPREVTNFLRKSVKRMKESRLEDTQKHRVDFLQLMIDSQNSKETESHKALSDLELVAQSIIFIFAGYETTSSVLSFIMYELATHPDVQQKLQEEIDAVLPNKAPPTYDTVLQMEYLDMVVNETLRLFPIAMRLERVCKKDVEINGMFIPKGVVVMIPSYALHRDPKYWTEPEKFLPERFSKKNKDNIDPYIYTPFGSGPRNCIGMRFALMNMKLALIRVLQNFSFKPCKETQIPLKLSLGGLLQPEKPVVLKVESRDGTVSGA

For `Cc1nc2c(c(-c3ccccc3)n1)CCN(C(=O)c1cccc(C(F)(F)F)c1Cl)C2`, the fraction unbound in data set [1] was found to be 0.032. The IC50 at P2X purinoceptor 7 [2] is 240 nM.

On to `Cc1nc2c(c(-c3ccn[nH]3)n1)CCN(C(=O)c1cccc(C(F)(F)F)c1Cl)C2`, for which the IC50 came to 1140 nM at P2X purinoceptor 7 [3] and 8.5 nM on P2X purinoceptor 7 [2]. For the same compound, the fraction unbound in data set [4] is 0.074.

In turn, `Cc1nc2c(c(-c3ccn[nH]3)n1)C[C@@H](C)N(C(=O)c1cccc(C(F)(F)F)c1Cl)C2` yielded an IC50 against Cytochrome P450 3A4 of 3300 nM. Besides, the Cmax in data set [5] is 571 nM. Besides, in the data set on Rattus norvegicus [6], the response was half-maximal at 8 nM (EC50). In [7], this compound came in with a bioavailability of 35%.

As to `Cc1nc2c(c(-c3ccn[nH]3)n1)C[C@@H](C)N(C(=O)c1ccc(Cl)cc1F)C2`, the values for the IC50 on Cytochrome P450 3A4 and at P2X purinoceptor 7 [2] were greater than 10000 nM and 19 nM, respectively. Besides, the EC50 in the data set on Rattus norvegicus [6] worked out at 100 nM.

Take `O=C(NCC(CC1(C(F)F)CC1)c1ccc(C2CC2)nc1)c1cccc(Cl)c1Cl` (stereo not drawn): the IC50 on P2X purinoceptor 7 [8] was 0.79 nM.

In the case of `O=C(c1cccc(C(F)(F)F)c1Cl)N1CCn2c(nnc2C(F)(F)F)[C@H]1c1ccccc1`, the bioavailability in data set [9] amounted to 78%. Besides, the IC50 at P2X purinoceptor 7 [3] worked out at 42 nM; at P2X purinoceptor 7 [2] it was 8.7 nM. For the same compound, the efflux ratio at 10 µM in data set [10] turned out to be 0.75. This compound also registered an Occ with Rattus norvegicus [11] greater than 80%. Further, the Kp in data set [12] is 0.5.

For the compound `Cc1nnc2n1CCN(C(=O)c1cccc(C(F)(F)F)c1Cl)[C@@H]2c1ccccc1`, the IC50 on P2X purinoceptor 7 [3] came to 27 nM; at P2X purinoceptor 7 [2], 2.7 nM. The efflux ratio at 10 µM in data set [10] stood at 5.1.

Turning to `CCCCc1nnc2n1CCN(C(=O)c1cccc(C(F)(F)F)c1Cl)[C@@H]2c1ccccc1`, the IC50 turned out to be 20 nM on P2X purinoceptor 7 [3] and 8.5 nM on P2X purinoceptor 7 [2]. Besides, the efflux ratio at 10 µM in data set [10] was determined as 1.22.

Take `O=C(NCC1(c2ccc(Cl)nc2)CCCCC1)c1c(Cl)ccc2[nH]ccc12`: the IC50 on P2X purinoceptor 7 [13] turned out to be 3.2 nM.

In the case of `O=C(c1cccc(C(F)(F)F)c1Cl)N1CCn2cnnc2[C@H]1c1ccccc1`, the values for the IC50 at P2X purinoceptor 7 [3] and on P2X purinoceptor 7 [2] were 64 nM and 4.5 nM, respectively. For the same compound, in data set [10], the efflux ratio at 10 µM was 4.5.

Regarding `Cc1ncc(C(CNC(=O)c2cc(-c3ncc(F)cn3)ccc2Cl)N2CCCC(F)(F)C2)s1` (stereo not drawn), the IC50 on P2X purinoceptor 7 [14] was 22 nM.

For `C[C@H]1CC[C@@](O)(CNC(=O)c2cc(C3CCOC3)n3cccc(Cl)c23)CC1` (stereo partly drawn), the IC50 at P2X purinoceptor 7 [15] and on P2X purinoceptor 7 [16] was less than 10 nM throughout.

Consider `CCc1nnc2n1CCN(C(=O)c1cccc(C(F)(F)F)c1Cl)[C@@H]2c1ccccc1`, for which, in data set [10], the efflux ratio at 10 µM was found to be 3.24. Further, at P2X purinoceptor 7 [2], the IC50 worked out at 2.4 nM.

Take `O=C(NCC(c1cnc(C(F)(F)F)nc1)N1CCOCC1)c1c(Cl)ccc2[nH]ccc12` (stereo not drawn): the IC50 on P2X purinoceptor 7 [13] amounted to 3.9 nM.

As to `CN(C)C(=O)CCNc1ccc2c(C(=O)NCC3CCC(F)(F)CC3)c(Cl)ccc2n1`, the IC50 at P2X purinoceptor 7 [15] and on P2X purinoceptor 7 [16] was less than 10 nM in each case.

With `O=C(c1cccc(C(F)(F)F)c1Cl)N1CCn2c(C3CC3)nnc2[C@H]1c1ccccc1`, the IC50 on P2X purinoceptor 7 [3] was 17 nM; at P2X purinoceptor 7 [2], 6.9 nM. Also, the efflux ratio at 10 µM in data set [10] was 3.33.

In the case of `CC(C)(C)c1nnc2n1CCN(C(=O)c1cccc(C(F)(F)F)c1Cl)[C@@H]2c1ccccc1`, the efflux ratio at 10 µM in data set [10] amounted to 2. The IC50 on P2X purinoceptor 7 [2] is 11 nM.

With `O=C(NCC1(c2ccc(Cl)nc2)CCCCC1)C1CCCc2[nH]ccc21` (stereo not drawn), the IC50 on P2X purinoceptor 7 [13] stood at 3.4 nM.

Source of the values: ChEMBL document CHEMBL4425156, “The evolution of P2X7 antagonists with a focus on CNS indications” (Bioorg Med Chem Lett, 2016).
